The target of this assay is T1, human M4 muscarinic acetylcholine receptor (Homo sapiens, UniProt P08173).
T1 construct: expressed in transfected cells; host or cells: CHO-K1
T1 sequence (P08173 1-479): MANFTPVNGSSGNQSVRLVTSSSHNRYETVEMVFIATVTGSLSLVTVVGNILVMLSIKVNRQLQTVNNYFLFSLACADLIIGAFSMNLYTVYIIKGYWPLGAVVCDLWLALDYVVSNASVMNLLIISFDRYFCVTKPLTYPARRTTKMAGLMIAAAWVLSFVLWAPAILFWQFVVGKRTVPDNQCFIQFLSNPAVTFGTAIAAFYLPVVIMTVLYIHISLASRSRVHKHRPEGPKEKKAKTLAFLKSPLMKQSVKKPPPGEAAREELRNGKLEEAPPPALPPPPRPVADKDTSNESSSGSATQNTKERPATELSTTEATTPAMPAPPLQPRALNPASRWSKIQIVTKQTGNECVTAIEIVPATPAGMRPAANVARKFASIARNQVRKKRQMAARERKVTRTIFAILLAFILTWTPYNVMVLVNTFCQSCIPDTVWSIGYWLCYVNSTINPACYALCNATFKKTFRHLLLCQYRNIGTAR
Nature of the assay: human FLIPR-based M4 PAM assay (CHO-K1 cells, human M4 receptor and Gαqi5, calcium dye fluorescence, acetylcholine at 20% of maximum). The assay is classed as cell-based. The settings on record: inflection point (IP) of 4 parameter logistic dose response curve; CHO-K1 cells with human M4 receptor and Gαqi5; FLIPR Tetra. The method, then: In a typical experiment the M4 muscarinic acetylcholine receptor modulating activity of the compounds of the present invention was determined in accordance with the following experimental method. […] On the day of assay, growth medium is removed, the cells are washed 2 times with wash buffer, and cells are incubated in dye loading buffer at 37° C., 5% CO2 for ˜1 hour. […] Next, 10 uL of acetylcholine is added (final concentration calculated so as to achieve 20% of the maximum acetycholine response), and the fluorescence reading is continued for 3.5 min. In some cases, a third addition of acetylcholine (final concentration calculated to achieve 70% of the maximal acetylcholine response) is performed. The resulting dose response curves are fit to a 4 parameter logistic equation and the final result is determined as the inflection point (IP) of the curve
CHO-K1 cells stably transfected with human M4 receptor and chimeric G-protein Gαqi5 are thawed from liquid N2 storage, resuspended in growth medium, plated in black, clear bottom 384 well plates, and incubated 16-20 hours at 37° C., 5% CO2.
On the day of assay, growth medium is removed, the cells are washed 2 times with wash buffer, and cells are incubated in dye loading buffer at 37° C., 5% CO2 for ˜1 h. […] Next, 10 uL of acetylcholine is added (final concentration calculated so as to achieve 20% of the maximum acetycholine response), and the fluorescence reading is continued for 3.5 min. In some cases, a third addition of acetylcholine (final concentration calculated to achieve 70% of the maximal acetylcholine response) is performed.

The term EC50 denotes the concentration that produces a half-maximal response. For the molecule `COc1ccc(OC2CCN(c3nc4oc(C)cc(=O)c4cc3C)CC2)cn1` [Example 41, 7-(4-((6-methoxypyridin-3-yl)oxy)piperidin-1-yl)-2,6-dimethyl-4H-pyrano[2,3-b]pyridin-4-one], the EC50 was found to be 100 nM.

For `Cc1cc2c(=O)[nH]c(=O)[nH]c2nc1N1CCC(OCC2CC2)CC1` [Example 33, 7-(4-(cyclopropyl-methoxy)piperidin-1-yl)-6-methylpyrido[2,3-d]pyrimidine-2,4(1H,3H)-dione], the EC50 was determined as 52 nM.

Regarding `Cc1nc2nc(N3CCC(Oc4cnc5c(c4)COC5)CC3)c(C)cc2c(=O)[nH]1` [Example 22, 7-(4-((5,7-dihydrofuro[3,4-b]pyridin-3-yl)oxy)piperidin-1-yl)-2,6-dimethylpyrido[2,3-d]pyrimidin-4(3H)-one], the EC50 was 158 nM.

`COc1ccc(OC2CCN(c3nc4c(cc3C)c(=O)[nH]c(=O)n4C)CC2)cn1` [Example 5, 7-(4-((6-Methoxypyridin-3-yl)oxy)piperidin-1-yl)-1,6-dimethylpyrido[2,3-d]pyrimidine-2,4(1H,3H)-dione]: the EC50 was determined as 366 nM.

For `COCc1nc2nc(N3CCC(Oc4cccc(C#N)c4)CC3)c(C)cc2c(=O)[nH]1` [Example 39, 3-((1-(2-(methoxymethyl)-6-methyl-4-oxo-3,4-dihydropyrido[2,3-d]pyrimidin-7-yl)piperidin-4-yl)oxy)benzonitrile], the EC50 was 32 nM.

As for `COc1ccc(OC2CCN(c3nc4c(cc3C)C(=O)N(Cc3ccncc3)CC4)CC2)cn1` [Example 3, 2-(4-((6-methoxypyridin-3-yl)oxy)piperidin-1-yl)-3-methyl-6-(pyridin-4-ylmethyl)-7,8-dihydro-1,6-naphthyridin-5(6H)-one], the EC50 is 453 nM.

As for `Cc1cc2c(=O)[nH]ncc2nc1N1CCC(OCC2CCCC2)CC1` [Example 18, 2-(4-(cyclopentyl-methoxy)piperidin-1-yl)-3-methylpyrido[2,3-d]pyridazin-5(6H)-one], the concentration giving a half-maximal response (EC50) was 254 nM.

In the case of `COc1ccc(OC2CCN(c3nc4ncn(C)c(=O)c4cc3C)CC2)cn1` [Example 44, 7-(4-((6-Methoxypyridin-3-yl)oxy)piperidin-1-yl)-3,6-dimethylpyrido[2,3-d]pyrimidin-4(3H)-one], the EC50 was 135 nM.

Consider `COc1ccc(OC2CCN(c3nc4cnn(CO)c(=O)c4cc3C)CC2)cn1` [Example 51, 6-(Hydroxymethyl)-2-(4-((6-methoxypyridin-3-yl)oxy)piperidin-1-yl)-3-methylpyrido[2,3-d]pyridazin-5(6H)-one], for which the EC50 worked out at 46 nM.

On to `Cc1cc2c(=O)[nH]cnc2nc1N1CCC(Oc2cccc(C#N)c2)CC1` [Example 15, 3-((1-(6-methyl-4-oxo-3,4-dihydropyrido[2,3-d]pyrimidin-7-yl)piperidin-4-yl)oxy)benzonitrile], for which the EC50 is 23 nM.

Regarding `Cc1nc2nc(N3CCC(Oc4cnn(C)c4)CC3)c(C)cc2c(=O)[nH]1` [Example 27, 2,6-dimethyl-7-(4-((1-methyl-1H-pyrazol-4-yl)oxy)piperidin-1-yl)pyrido[2,3-d]pyrimidin-4(3H)-one], the EC50 was found to be 494 nM.

As for `COc1ccc(OC2CCN(c3nc4nc(CO)[nH]c(=O)c4cc3C)CC2)cn1` [Example 9, 2-(Hydroxymethyl)-7-(4-((6-methoxypyridin-3-yl)oxy)piperidin-1-yl)-6-methylpyrido[2,3-d]pyrimidin-4(3H)-one], the EC50 turned out to be 140 nM.

As for `COc1ccc(OC2CCN(c3nc4cnn(CCO)c(=O)c4cc3C)CC2)cn1` [Example 42, 6-(2-Hydroxyethyl)-2-(4-((6-methoxypyridin-3-yl)oxy)piperidin-1-yl)-3-methylpyrido[2,3-d]pyridazin-5(6H)-one], the EC50 was found to be 110 nM.

With `Cc1nc2nc(N3CCC(OCC4(C)CC4)CC3)c(C)cc2c(=O)[nH]1` [Example 20, 2,6-dimethyl-7-(4-((1-methylcyclopropyl)methoxy)piperidin-1-yl)pyrido[2,3-d]pyrimidin-4(3H)-one], the 50% effective concentration (EC50) is 50 nM.

`COc1ccc(OC2CCN(c3nc4cnn(C)c(=O)c4cc3C)CC2)cn1` [Example 13, 2-(4-((6-methoxypyridin-3-yl)oxy)piperidin-1-yl)-3,6-dimethylpyrido[2,3-d]pyridazin-5(6H)-one]: the EC50 was 61 nM.

As for `CCc1cc2c(=O)[nH]c(=O)[nH]c2nc1N1CCC(OCC2(C)CC2)CC1` [Example 31, 6-ethyl-7-(4-((1-methylcyclopropyl)methoxy)piperidin-1-yl)pyrido[2,3-d]pyrimidine-2,4(1H,3H)-dione], the EC50 was found to be 42 nM.

In the case of `COc1ccc(OC2CCN(c3nc4[nH]c(=O)[nH]c(=O)c4cc3C)CC2)cn1` [Example 8, 7-(4-((6-Methoxypyridin-3-yl)oxy)piperidin-1-yl)-6-methylpyrido[2,3-d]pyrimidine-2,4(1H,3H)-dione], the EC50 amounted to 18 nM.

For `Cc1cc2c(=O)[nH]c(=O)[nH]c2nc1N1CCC(OCC2CCCCC2)CC1` [Example 34, 7-(4-(cyclohexyl-methoxy)piperidin-1-yl)-6-methylpyrido[2,3-d]pyrimidine-2,4(1H,3H)-dione], the EC50 is 361 nM.

As for `Cc1cc2c(=O)[nH]c(=O)[nH]c2nc1N1CCC(OCC2CCC2)CC1` [Example 32, 7-(4-(cyclobutyl-methoxy)piperidin-1-yl)-6-methylpyrido[2,3-d]pyrimidine-2,4(1H,3H)-dione], the EC50 is 236 nM.

With `Cc1cc2c(=O)[nH]cnc2nc1N1CCC(Oc2ccccc2)CC1` [Example 14, 6-methyl-7-(4-phenoxypiperidin-1-yl)pyrido[2,3-d]pyrimidin-4(3H)-one], the EC50 amounted to 80 nM.

As to `COc1ccc(OC2CCN(c3nc4c(cc3C)CCNC4=O)CC2)cn1` [Example 46, 2-(4-((6-Methoxypyridin-3-yl)oxy)piperidin-1-yl)-3-methyl-6,7-dihydro-1,7-naphthyridin-8(51H)-one], the EC50 was found to be 587 nM.

On to `COc1ccc(OC2CCN(c3nc4[nH]c(=O)n(C)c(=O)c4cc3C)CC2)cn1` [Example 6, 7-(4-((6-Methoxypyridin-3-yl)oxy)piperidin-1-yl)-3,6-dimethylpyrido[2,3-d]pyrimidine-2,4(1H,3H)-dione], for which the EC50 was found to be 59 nM.

In the case of `COc1ccc(OC2CCN(c3nc4occc(=O)c4cc3C)CC2)cn1` [Example 35, 7-(4-((6-methoxypyridin-3-yl)oxy)piperidin-1-yl)-6-methyl-4H-pyrano[2,3-b]pyridin-4-one], the EC50 stood at 38 nM.

Regarding `CCc1cc2c(=O)[nH]ncc2nc1N1CCC(Oc2ccc(OC)nc2)CC1` [Example 37, 3-ethyl-2-(4-((6-methoxypyridin-3-yl)oxy)piperidin-1-yl)pyrido[2,3-d]pyridazin-5(6H)-one], the EC50 came out at 71 nM.

With `COc1ccc(OC2CCN(c3nc4nc[nH]c(=O)c4cc3C)CC2)cn1` [Example 10, 7-(4-((6-methoxypyridin-3-yl)oxy)piperidin-1-yl)-6-methylpyrido[2,3-d]pyrimidin-4(3H)-one], the EC50 is 34 nM.

Take `Cc1cc2c(=O)[nH]cnc2nc1N1CCC(OCC2CC2)CC1` [Example 17, 7-(4-(cyclopropyl-methoxy)piperidin-1-yl)-6-methylpyrido[2,3-d]pyrimidin-4(3H)-one]: the EC50 worked out at 121 nM.

`Cc1cc2c(=O)[nH]c(=O)[nH]c2nc1N1CCC(Oc2cccc(C#N)c2)CC1` [Example 7, 3-((1-(6-methyl-2,4-dioxo-1,2,3,4-tetrahydro-pyrido[2,3-d]pyrimidin-7-yl)piperidin-4-yl)oxy)benzonitrile]: the EC50 turned out to be 41 nM.

As for `COc1ccc(OC2CCN(c3nc4c(cc3C)C(=O)N(C)CC4)CC2)cn1` [Example 4, 2-(4-((6-methoxypyridin-3-yl)oxy)piperidin-1-yl)-3,6-dimethyl-7,8-dihydro-1,6-naphthyridin-5(6H)-one], the EC50 turned out to be 431 nM.

Turning to `Cc1cc2c(=O)[nH]ncc2nc1N1CCC(OCC2(C)CC2)CC1` [Example 24, 3-methyl-2-(4-((1-methylcyclopropyl)methoxy)piperidin-1-yl)pyrido[2,3-d]pyridazin-5(6H)-one], the EC50 came out at 18 nM.

The values are drawn from US10836775B2, “6,6-fused heteroaryl piperidine ether allosteric modulators of the M4 muscarinic acetylcholine receptor” (Merck Sharp & Dohme Corp., priority 2016, dated 2020).
